The text below walks through data of US8916604B2, “Compositions and methods for epigenetic modification of nucleic acid sequences” (Rutgers, The State University of New Jersey, priority 2011, dated 2014).

Where two headings read alike, the source gives them in different places.

In data set [1] the test system is first 5 CpGs in the promoter region of Nrf2 gene. Particulars: TRAMP C1 cells, other DNA de-methylating agents; cited from earlier work.
In the next data set the test system is HepG2-C8 cells. Put plainly: MTS cell viability assay. Type of data set: cell-based, human. The protocol: The stably transfected single clone HepG2-ARE-C8 (HepG2-C8) cell line has been established previously in our laboratory using the […]-luciferase reporter gene. The cells were maintained in Dulbecco's modified Eagle medium supplemented with 10% fetal bovine serum (FBS), 1.17 g/l sodium bicarbonate, and 100 unit/ml penicillin, 100 μg/ml streptomycin at 37° C. in a humidified incubator with 5% CO2. […] MTS] (Promega, Madison, Wis.). […] The cells were then treated with MTS for 1 h at 37° C. Absorbance of the formazan product was read at 490 nm with a μQuant Biomolecular Spectrophotometer from Bio-Tek Instruments Inc. (Winooski, Vt.). Independent control studies were conducted using 1% and 10% FBS medium.

Data set [2] has as its system antioxidant response element (ARE). In words: ARE-luciferase reporter assay with combination index calculation. It is filed as cell-based, human. The protocol: The stably transfected single clone HepG2-ARE-C8 (HepG2-C8) cell line has been established previously in our laboratory using the […]-luciferase reporter gene. The cells were maintained in Dulbecco's modified Eagle medium supplemented with 10% fetal bovine serum (FBS), 1.17 g/l sodium bicarbonate, and 100 unit/ml penicillin, 100 μg/ml streptomycin at 37° C. in a humidified incubator with 5% CO2. The HepG2-C8 cells were cultured in 12-well plates and each well contained 1 million cells in 1 ml of 10% FRS medium. The cells were treated with compounds for 24 h. The luciferase activity was determined using a luciferase kit from Promega (Madison, USA) according to the manufacturer's instructions. Briefly, after treatments for 24 h, the cells were washed twice with ice-cold phosphate buffered-saline (PBS, pH 7.4) and harvested in 1× reporter lysis buffer and […]. After centrifugation at 4° C., 12000 rpm for 5 min, a 10 μl aliquot of the supernatant was assayed for luciferase activity with a Sirius luminometer (Berthold Detection System GmbH, Pforzheim, Germany). The luciferase activity was normalized against protein concentration, determined by a BCA protein assay (Pierce, Rockford, USA), and expressed as the fold induction over the luciferase activity of control vehicle-treated cells. At least two to three independent studies were conducted in triplicates. To determine the synergistic effect between the combination of two different compounds, the combination index (CI) was calculated with the following formula: […] This approach is based on the Loewe additivity model and although the exact mechanism of interaction may be unknown, this model is one of the most commonly used reference models for evaluating potential drug-drug interactions Lee et al., J Biopharm Stat 2007; 17: 461-480).

The test system of a further data set is NQO1. Put plainly: qPCR mRNA expression in HepG2-C8 cells. Particulars: 6 h. It is filed as cell-based, human. Here is the method:
(§1) The cells were treated similarly to the NITS and ARE-luciferase assays described above using 10% FBS medium. The incubation of the compounds with the cells was terminated 6 h later. The mRNA expression was evaluated utilizing a quantitative real-time polymerase chain reaction (qPCR). An RNeasy kit from Qiagen was used for RNA extraction (Valencia, Calif.). The total RNA was reverse-transcribed to cDNA by TaqMan Reverse Transcription Reagents (Applied Biosystems Inc, Foster City, Calif.). SYBR Green (Applied Biosystems Inc, Foster City, Calif.) fluorescence was used to measure the product of qPCR. Glyceraldehyde 3-phosphate dehydrogenase (GAPDH) was used as the housekeeping gene, and the Applied Biosystems 7900HT Fast Real-Time PCR System (Applied Biosystems Inc, Foster City, Calif.) was used as described previously (Saw et al., Biochem Pharmacol 2010; 79: 421-430) to detect quantitatively the induction of mRNA of Nrf2, phase II DME GSTm2, NAD (P)H dehydrogenase, quinone 1 (NQO1), UGT family, polypeptide A1 (UGT1A1) and antioxidant enzymes HO-1, superoxide dismutase 1 (SOD1). The primer pairs were designed using the Primer Quest Oligo Design and Analysis Tool by Integrated DNA Technologies Inc. (Coralville, Iowa, USA) and the sequences are listed in Table 4. At least four wells of each treatment were performed and duplicate samples were carried out for each treatment.

The test system of another data set is HO-1. In words: qPCR mRNA expression in HepG2-C8 cells. Type of data set: cell-based, human. The note with it: 25 μM, 6 h, vs 0.1% DMSO. The protocol: as §1
The test system of another data set is Nrf2. Put plainly: qPCR mRNA expression in HepG2-C8 cells. It is filed as cell-based, human. Particulars: 25 μM, 6 h, vs 0.1% DMSO. The protocol: as §1
The conditions of data set [3]: oral; cited from earlier work.
Setting [4] is: Homo sapiens, HepG2C8, 1% FBS medium, read-out: cell viability inhibitory concentrations (IC50).

On to `COc1cc(/C=C/C(=O)CC(=O)/C=C/c2ccc(O)c(OC)c2)ccc1O` [curcumin], for which the “CpG methylation of the first 5 CpGs of the promoter of Nrf2 gene” value in data set [1] was “decreased CpG methylation”.
With `C[S+]([O-])CCCCN=C=S` (stereo not drawn) [SFN, sulforaphane], the IC50 with HepG2-C8 cells (setting [4]) is approximately 20 µM. The “time of peak induction of ARE-luciferase activity” value in data set [2] (time course study, after treatment) was 18 h. Besides, in the data set on NQO1 (any concentration), the NQO1 gene expression entry was “not significantly induced”.
Regarding `S=C=NCCc1ccccc1` [PEITC, phenethyl isothiocyanate], the IC50 in the data set on HepG2-C8 cells (setting [4]) is approximately 20 µM. In the data set on NQO1 (1 μM), the NQO1 gene expression entry was “greatly induced”.
Take `OCc1c[nH]c2ccccc12` [I3C, indole-3-carbinol]: the IC50 worked out at 135 µM in the data set with HepG2-C8 cells (1% FBS medium, read-out: cell viability inhibitory concentrations (IC50)) and 300 µM in the data set on HepG2-C8 cells (10% FBS medium (data not shown), read-out: cell viability IC50). Besides, the “induction of ARE-luciferase” value in data set [2] (doses lower than 25 μM, 10% FBS medium (data not shown)) is “no significant induction”. The “HO-1 mRNA induction over control” value with HO-1 is reported as “did not show significant induction”. In addition, the “Nrf2 mRNA induction over control” value in the data set with Nrf2 is listed as “did not show significant induction”. Further, the tolerability result in data set [3] is recorded as “well tolerated”.
